US9546152B2 (MERCK SHARP & DOHME CORP., priority 2012, dated 2017)

How the values were obtained:
[1] = biological target: rat orexin-1 receptor (Rattus norvegicus (Rat), UniProt P56718); assay: FLIPR Ca2+ Flux Assay, orexin-1 receptor; assay type: cell-based; settings: CHO cells expressing the rat orexin-1 receptor; agonist 70 pM Ala-6,12 human orexin-A; read-out: hOX1R FLIPR IC50
In short: (§1)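 CHO cells expressing rat OX1 or human OX2 receptor, Fluo-4AM loaded; compounds preincubated 5 min, then challenged with 70 pM Ala-6,12 human orexin-A in HBSS/20 mM HEPES/0.1% BSA/2.5 mM probenecid, pH 7.4. FLIPR fluorescence peak height over 5 min compared with agonist-only response.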

[2] = biological target: T1, human orexin-2 receptor (Homo sapiens (Human), UniProt O43614); assay: radioligand binding assay, orexin-2 receptor; settings: membranes prepared from CHO cells expressing the OX2 receptor; read-out: hOX2R BIND hKi
T1 sequence (O43614 whole entry): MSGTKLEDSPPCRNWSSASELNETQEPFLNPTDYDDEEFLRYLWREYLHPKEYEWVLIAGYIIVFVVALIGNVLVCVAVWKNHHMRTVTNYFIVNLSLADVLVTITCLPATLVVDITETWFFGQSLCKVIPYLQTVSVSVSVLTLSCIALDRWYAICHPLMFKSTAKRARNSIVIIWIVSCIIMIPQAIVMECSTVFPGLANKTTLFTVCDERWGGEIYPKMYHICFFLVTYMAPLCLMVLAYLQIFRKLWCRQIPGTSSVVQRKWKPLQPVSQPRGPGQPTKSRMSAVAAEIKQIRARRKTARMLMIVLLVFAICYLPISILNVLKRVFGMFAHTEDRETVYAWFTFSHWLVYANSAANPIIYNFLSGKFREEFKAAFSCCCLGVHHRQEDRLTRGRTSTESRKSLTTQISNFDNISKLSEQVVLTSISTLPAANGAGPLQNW

[3] = biological target: T1, human orexin-2 receptor; assay: FLIPR Ca2+ Flux Assay, orexin-2 receptor; assay type: cell-based; settings: CHO cells expressing the human orexin-2 receptor; agonist 70 pM Ala-6,12 human orexin-A; read-out: hOX2R FLIPR IC50
In short: as §1

rat orexin-1 receptor, sequence (P56718 whole entry): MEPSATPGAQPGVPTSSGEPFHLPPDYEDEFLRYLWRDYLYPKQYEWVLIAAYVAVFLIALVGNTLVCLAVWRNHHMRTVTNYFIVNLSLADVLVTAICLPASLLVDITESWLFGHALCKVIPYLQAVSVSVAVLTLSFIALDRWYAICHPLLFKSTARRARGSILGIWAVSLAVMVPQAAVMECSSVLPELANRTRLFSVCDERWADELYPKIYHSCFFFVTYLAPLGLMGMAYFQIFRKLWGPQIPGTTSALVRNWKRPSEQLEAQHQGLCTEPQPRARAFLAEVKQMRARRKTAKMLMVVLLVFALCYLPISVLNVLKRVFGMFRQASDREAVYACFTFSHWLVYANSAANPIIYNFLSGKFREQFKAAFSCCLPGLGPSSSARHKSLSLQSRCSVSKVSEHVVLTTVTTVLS

SMILES	IC50 [1] [nM]	Ki [2] [nM]	IC50 [3] [nM]
Cc1c(C#N)ccnc1O[C@@H]1CC[C@@H](C)N(C(=O)c2ccc(Cl)nc2-n2nccn2)C1 [Example 72, 2-{[(3R,6R)-1-{[6-chloro-2-(2H-1,2,3-triazol-2-yl)pyridin-3-yl]carbonyl}-6-methylpiperidin-3-yl]oxy}-3-methylpyridine-4-carbonitrile]	> 10000	3.5	75
Cc1c(C#N)ccnc1O[C@@H]1CC[C@@H](C)N(C(=O)c2sccc2-c2ncccn2)C1 [Example 75, 3-methyl-2-({(3R,6R)-6-methyl-1-[(3-pyrimidin-2-ylthiophen-2-yl)carbonyl]piperidin-3-yl}oxy)pyridine-4-carbonitrile]	1400	0.8	15
Cc1ccc(C(=O)N2C[C@H](Oc3nccc(C#N)c3C)CC[C@H]2C)c(-c2ncccn2)c1 [Example 76, 3-methyl-2-({(3R,6R)-6-methyl-1-[(4-methyl-2-pyrimidin-2-ylphenyl)carbonyl]piperidin-3-yl}oxy)pyridine-4-carbonitrile]	1270	2.1	37
COc1ccc(C(=O)N2C[C@H](Oc3nccc(C#N)c3C)CC[C@H]2C)c(-c2ccccc2)n1 [Example 78, 2-({(3R,6R)-1-[(6-methoxy-2-phenylpyridin-3-yl)carbonyl]-6-methylpiperidin-3-yl}oxy)-3-methylpyridine-4-carbonitrile]	1260	1.2	92
COc1ccc(C(=O)N2C[C@H](Oc3nccc(C#N)c3C)CC[C@H]2C)c(-c2ccnn2C)n1 [Example 79, 2-{[(3R,6R)-1-{[6-methoxy-2-(1-methyl-1H-pyrazol-5-yl)pyridin-3-yl]carbonyl}-6-methylpiperidin-3-yl]oxy}-3-methylpyridine-4-carbonitrile]	10000	9.9	85.6
COc1ccc(C(=O)N2C[C@H](Oc3nccc(C#N)c3C)CC[C@H]2C)c(-c2ccn(C)n2)n1 [Example 81, 2-{[(3R,6R)-1-{[6-methoxy-2-(1-methyl-1H-pyrazol-3-yl)pyridin-3-yl]carbonyl}-6-methylpiperidin-3-yl]oxy}-3-methylpyridine-4-carbonitrile]	10000	8.4	64.6
COc1ccc(C(=O)N2C[C@H](Oc3nccc(C#N)c3C)CC[C@H]2C)c(-c2cccnc2)n1 [Example 82, 2-({(3R,6R)-1-[(6-methoxy-2,3′-bypyridin-3-yl)carbonyl]-6-methylpiperidin-3-yl}oxy)-3-methylpyridine-4-carbonitrile]	8410	2.4	55.4
COc1ccc(C(=O)N2C[C@H](Oc3nccc(C#N)c3C)CC[C@H]2C)c(-c2ccccn2)n1 [Example 83, 2-({(3R,6R)-1-[(6-methoxy-2,2′-bypyridin-3-yl)carbonyl]-6-methylpiperidin-3-yl}oxy)-3-methylpyridine-4-carbonitrile]	10000	0.84	64.6
COc1ccc(C(=O)N2C[C@H](Oc3nccc(C#N)c3C)CC[C@H]2C)c(SC)n1 [Example 84, 2-{[(3R,6R)-1-{[6-Methoxy-2-(methylsulfanyl)pyridin-3-yl]carbonyl}-6-methylpiperidin-3-yl]oxy}-3-methylpyridine-4-carbonitrile]	> 10000	2	22
COc1ccc(C(=O)N2C[C@H](Oc3nccc(C#N)c3C)CC[C@H]2C)c(N(C)C)n1 [Example 87, 2-{[(3R,6R)-1-{[2-(Dimethylamino)-6-methoxypyridin-3-yl]carbonyl}-6-methylpiperidin-3-yl]oxy}-3-methylpyridine-4-carbonitrile]	> 10000	9	69
Cc1c(C#N)ccnc1O[C@@H]1CC[C@@H](C)N(C(=O)c2ccc(OCF)nc2-n2nccn2)C1 [Example 88, 2-{[(3R,6R)-1-{[6-(Fluoromethoxy)-2-(2H-1,2,3-triazol-2-yl)pyridin-3-yl]carbonyl}-6-methylpiperidin-3-yl]oxy}-3-methylpyridine-4-carbonitrile]	> 10000	9.2	58
